# Literature values in patent US20020020828A1, “Non-toxic ethylene glycol-based antifreeze/heat transfer fluid concentrate and antifreeze/heat transfer fluid” (priority 2000, published 2002).
# Test system: humans
# Details: ingestion
compound,measurement,value
"OCCO [EG, 1,2-ethandiol]",toxic level in humans (reported as low as),"1,570 mg/kg"
